We go through 21 compounds from ChEMBL document CHEMBL5244279, “Perspectives on SARS-CoV-2 Main Protease Inhibitors” (J Med Chem, 2021).

Broadly, the IC50 is the point on the concentration scale where inhibition reaches its midpoint. For orientation: CC50 means the concentration that lowers cell viability or growth by half. A word on the EC50: it is the concentration giving half of the maximal effect. One may read the Ki as a measure of affinity in units of concentration, obtained from inhibition or displacement. As usually defined, the bioavailability is the share of a dose that reaches the circulation, judged against a reference dose that is usually intravenous.

Data set [1] is described as follows: Inhibition of SARS CoV N-terminal his-tagged Main protease using Dabcyl-KTSAVLQSGFRKME-Edan peptide as substrate by fluorescence based analysis. Set-up: species or system Severe acute respiratory syndrome-related coronavirus.
Data set [2] is described as follows: Cytotoxicity against cat CRFK cells assessed as reduction of cell viability. In kind it is toxicity, cell-based, Felis catus.
Data set [3] in a line: Cytotoxicity against human Huh-7 cells assessed as reduction of cell viability. In kind it is toxicity, cell-based.
Data set [4] can be described thus: Cytotoxicity against African green monkey Vero E6 cells assessed as reduction of cell viability by CellTiterGlo assay. Conditions: chlorocebus sabaeus. In kind it is toxicity, cell-based, Vero C1008. (Cellular ATP, detected with luciferase, serves as a proxy for viable cell number.)
The nature of data set [5]: Cytotoxicity against mouse L929 cells assessed as reduction of cell viability. In kind it is toxicity, cell-based.
A short description of data set [6]: Inhibition of SARS CoV Main protease using Dabcyl-KTSAVLQSGFRKM-E(Edans)-NH2 peptide as substrate by FRET assay. On the set-up: species or system Severe acute respiratory syndrome-related coronavirus.
The next data set concerns SARS-CoV. The data set is described as follows: Antiviral activity against SARS CoV infected in human Calu-3 cells assessed as reduction in viral RNA replication by qPCR analysis. In kind it is functional, organism-based. Conditions: Severe acute respiratory syndrome-related coronavirus. In general terms: In qPCR the cycle at which signal appears reflects the starting amount.

The nature of data set [7]: Binding affinity to SARS CoV N-terminal his-tagged Main protease using Dabcyl-KTSAVLQSGFRKME-Edan peptide as substrate by fluorescence based analysis. On the set-up: species or system Severe acute respiratory syndrome-related coronavirus.
Data set [8] can be described thus: Binding affinity to SARS CoV Main protease incubated for 20 mins by reverse-phase HPLC analysis. On the set-up: species or system Severe acute respiratory syndrome-related coronavirus.
Data set [9] can be described thus: Oral bioavailability in Sprague-Dawley rat. In kind it is ADME, organism-based. The conditions noted are these: in vivo.
For another data set, the system named is SARS-CoV-2. In kind it is functional, organism-based, Vero E6. Conditions: Severe acute respiratory syndrome coronavirus 2, Vero C1008.
Data set [10] can be described thus: Inhibition of SARS CoV Main protease by FRET assay. Set-up: species or system Severe acute respiratory syndrome-related coronavirus.

The structures appear in SMILES notation.

In [1], `O=C(Oc1ccc(S(=O)(=O)c2ccc(OC(=O)C(Cl)=C(Cl)Cl)cc2)cc1)C(Cl)=C(Cl)Cl` registered an IC50 of 0.9 µM.
`CC(C)C[C@H](NC(=O)OCc1ccccc1)C(=O)N[C@@H](C[C@@H]1CCNC1=O)C(O)S(=O)(=O)O` (some centres not stated): the half-maximal cytotoxic concentration (CC50) in data set [2], in [3], in data set [4] and in [5] was above 200 µM in each case.
On to `O=C(/C=C/c1ccccc1)N[C@@H](CC1CCCCC1)C(=O)N[C@@H](C[C@@H]1CCNC1=O)C(=O)C(=O)NCc1ccccc1`, for which, in data set [6], inhibition was half-maximal at 0.71 µM (IC50). Also, the EC50 in the data set on SARS-CoV came out at 1.4 µM.
In turn, `O=C(/C=C/c1ccccc1)N[C@@H](CC1CC1)C(=O)N[C@@H](C[C@@H]1CCNC1=O)C(=O)C(=O)NCc1ccccc1` showed an IC50 in [6] of 0.24 µM. Moreover, in the data set on SARS-CoV, the EC50 is 1.9 µM.
Compound `CC(C)[C@H](NC(=O)[C@H](C)NC(=O)OCc1ccccc1)C(=O)N[C@@H](Cc1ccccc1)[C@@H](O)[C@H](O)[C@H](Cc1ccccc1)NC(=O)[C@@H](NC(=O)[C@H](C)NC(=O)OCc1ccccc1)C(C)C` gave a Ki in data set [1] of 0.6 µM.
For the compound `CC(C)C[C@H](NC(=O)/C=C/c1ccccc1)C(=O)N[C@@H](C[C@@H]1CCNC1=O)C(=O)C(=O)NCc1ccccc1`, the IC50 in data set [6] is 0.33 µM. For the same compound, the EC50 with SARS-CoV worked out at 7.2 µM.
For `O=C[C@H](C[C@@H]1CCNC1=O)NC(=O)[C@H](CC1CCCCC1)NC(=O)c1cc2ccccc2[nH]1`, the CC50 in data set [2], in data set [3], in data set [4] and in data set [5] was above 100 µM each time.
Compound `O=C(On1nnc2ccccc21)c1ccc2[nH]ccc2c1` displayed a Ki in data set [7] of 0.0075 µM. Further, in data set [1], the IC50 was determined as 0.2 µM.
In turn, `Nc1ccccc1C(=O)On1nnc2ccccc21` came in with a Ki in data set [7] of 0.0195 µM.
With `CC(=O)/C=C/[C@H](C[C@@H]1CCNC1=O)NC(=O)[C@H](CC(C)C)NC(=O)[C@H](CNC(=O)C(C)(C)C)NC(=O)OCc1ccccc1`, the affinity in [8], expressed as Ki, was 0.038 µM.
`O=C(On1nnc2ccccc21)c1ccc2[nH]cnc2c1`: in [7], affinity was put at a Ki of 0.0229 µM.
`O=C[C@H](C[C@@H]1CCNC1=O)NC(=O)[C@@H]1[C@H]2CCC[C@H]2CN1C(=O)COc1ccc(Cl)cc1Cl` yielded a bioavailability in data set [9] of 11.2%.
`CC(C)C[C@H](NC(=O)OC1CCC(F)(F)CC1)C(=O)N[C@H](C=O)C[C@@H]1CCNC1=O`: the IC50 with SARS-CoV-2 stood at 2.3 µM; in data set [10] it was 0.48 µM. Moreover, the CC50 in [2], in [3] and in [5] was above 100 µM in each case.
In turn, `CC(C)[C@H](NC(=O)[C@H](C)NC(=O)OCc1ccccc1)C(=O)N[C@@H](Cc1c[nH]c2ccccc12)[C@@H](O)[C@H](O)[C@@H](Cc1c[nH]c2ccccc12)NC(=O)[C@@H](NC(=O)[C@H](C)NC(=O)OCc1ccccc1)C(C)C` came in with a Ki in data set [1] of 0.073 µM.
For the compound `CCCCC1CCC(OC(=O)N[C@@H](CC(C)C)C(=O)N[C@@H](C[C@@H]2CCNC2=O)C(O)S(=O)(=O)O)CC1` (some centres not stated), the CC50 in data set [2], in data set [3] and in data set [5] was 59.1 µM in each case. The same compound displayed an IC50 in data set [10] of 1 µM.
`CN(C)c1ccc(C(=O)On2nnc3ccccc32)cc1` gave a Ki in data set [7] of 0.0174 µM.
In the case of `O=C(On1nnc2ccccc21)c1cc2cc(F)ccc2[nH]1`, in [7], the Ki turned out to be 0.0138 µM.
Consider `CC(C)C[C@H](NC(=O)OC1CCCCC1)C(=O)N[C@@H](C[C@@H]1CCNC1=O)C(O)S(=O)(=O)O` (some centres not stated), for which the half-maximal cytotoxic concentration (CC50) in data set [2], in data set [3] and in [5] was above 100 µM each time. This compound displayed an IC50 in [10] of 3.8 µM.
Regarding `CC(C)C[C@H](NC(=O)[C@@H](NC(=O)OCc1ccccc1)[C@@H](C)OC(C)(C)C)C(=O)N[C@H](/C=C/C(=O)C1CC1)C[C@@H]1CCNC1=O`, the affinity in data set [8], expressed as Ki, was 0.099 µM.
In data set [1], `Cc1cc(-c2ccc(N/N=C3\C=Cc4c(S(=O)(=O)O)cc(S(=O)(=O)O)c(N)c4C3=O)c(C)c2)ccc1N/N=C1\C=Cc2c(S(=O)(=O)O)cc(S(=O)(=O)O)c(N)c2C1=O` yielded an IC50 of 0.2 µM and a Ki of 0.073 µM.
Regarding `O=c1cc(-c2ccccc2)oc2cc(O)c(O)c(O)c12` [BAICALEIN], in [4], the CC50 was above 200 µM.
